From ChEMBL document CHEMBL1629650 (2009)
Values after ≈ are worked out from the molar mass of the structure shown.

Key:
Assay type in all cases: functional
[1] = tested on: Mycobacterium tuberculosis; assay: Antibacterial activity against HYG cassette-negative EMB-resistant Mycobacterium tuberculosis B54 harboring embB M306I mutant gene by modified conventional agar proportion method
[2] = tested on: Mycobacterium tuberculosis; assay: Antibacterial activity against Mycobacterium tuberculosis B52 harboring embB ATG-GTG (M306V) mutation in embB by modified conventional agar proportion method
[3] = tested on: Mycobacterium tuberculosis; assay: Antibacterial activity against Mycobacterium tuberculosis B59 harboring embB ATG-GTG (M306V) mutation in embB by modified conventional agar proportion method
[4] = tested on: Mycobacterium tuberculosis; assay: Antibacterial activity against Mycobacterium tuberculosis Rv44 harboring embB ATG-ATA (M306I) mutation in embB by modified conventional agar proportion method
[5] = tested on: Mycobacterium tuberculosis; assay: Antibacterial activity against HYG cassette-positive Mycobacterium tuberculosis Rv8102 harboring embB M306V mutant gene by modified conventional agar proportion method
[6] = tested on: Mycobacterium tuberculosis; assay: Antibacterial activity against Mycobacterium tuberculosis Rv21 harboring embB GAT-TAT (D328Y) mutation in embB by modified conventional agar proportion method
[7] = tested on: Mycobacterium tuberculosis; assay: Antibacterial activity against Mycobacterium tuberculosis Rv11 harboring embB ATG-CTG (M306L) mutation in embB by modified conventional agar proportion method
[8] = tested on: Mycobacterium tuberculosis; assay: Antibacterial activity against Mycobacterium tuberculosis B54 harboring embB ATG-ATA (M306I) mutation in embB by modified conventional agar proportion method
[9] = tested on: Mycobacterium tuberculosis; assay: Antibacterial activity against HYG cassette-positive Mycobacterium tuberculosis BAS5 harboring embB M306V mutant gene by modified conventional agar proportion method
[10] = tested on: Mycobacterium tuberculosis; assay: Antibacterial activity against HYG cassette-positive Mycobacterium tuberculosis Rv4402 harboring embB M306I mutant gene by modified conventional agar proportion method
[11] = tested on: Mycobacterium tuberculosis; assay: Antibacterial activity against Mycobacterium tuberculosis B56 harboring embB ATG-GTG (M306V) mutation in embB by modified conventional agar proportion method
[12] = tested on: Mycobacterium tuberculosis; assay: Antibacterial activity against Mycobacterium tuberculosis B74 harboring embB GAC-GGC (D300G) mutation in embB by modified conventional agar proportion method
[13] = tested on: Mycobacterium tuberculosis; assay: Antibacterial activity against Mycobacterium tuberculosis B92 harboring embB GAC-GCC (D354A) mutation in embB by modified conventional agar proportion method
[14] = tested on: Mycobacterium tuberculosis; assay: Antibacterial activity against Mycobacterium tuberculosis Rv8 harboring embB ATG-GTG (M306V) mutation in embB by modified conventional agar proportion method
[15] = tested on: Mycobacterium tuberculosis; assay: Antibacterial activity against Mycobacterium tuberculosis Rv23 harboring embB ATG-GTG (M306V) mutation in embB by modified conventional agar proportion method
[16] = tested on: Mycobacterium tuberculosis; assay: Antibacterial activity against Mycobacterium tuberculosis B95 harboring embB ATG-ATA (M306I) mutation in embB by modified conventional agar proportion method
[17] = tested on: Mycobacterium tuberculosis; assay: Antibacterial activity against Mycobacterium tuberculosis Rv17 harboring embB ATG-GTG (M306V) mutation in embB by modified conventional agar proportion method
[18] = tested on: Mycobacterium tuberculosis; assay: Antibacterial activity against HYG cassette-positive Mycobacterium tuberculosis BAS6 harboring embB M306V mutant gene by modified conventional agar proportion method
[19] = tested on: Mycobacterium tuberculosis; assay: Antibacterial activity against HYG cassette-positive Mycobacterium tuberculosis RvAS3 harboring embB M306I mutant gene by modified conventional agar proportion method
[20] = tested on: Mycobacterium tuberculosis; assay: Antibacterial activity against Mycobacterium tuberculosis B99 harboring embB CGC-CAC (R321H) mutation in embB by modified conventional agar proportion method
[21] = tested on: Mycobacterium tuberculosis; assay: Antibacterial activity against HYG cassette-positive Mycobacterium tuberculosis RvAS4 harboring embB M306I mutant gene by modified conventional agar proportion method
[22] = tested on: Mycobacterium tuberculosis; assay: Antibacterial activity against HYG cassette-negative EMB-resistant Mycobacterium tuberculosis B52 harboring embB M306V mutant gene by modified conventional agar proportion method
[23] = tested on: Mycobacterium tuberculosis; assay: Antibacterial activity against Mycobacterium tuberculosis Rv31 harboring embB GAT-TAT (D328Y) mutation in embB by modified conventional agar proportion method
[24] = tested on: Mycobacterium tuberculosis; assay: Antibacterial activity against Mycobacterium tuberculosis B55 harboring embB ATG-GTG (M306V) mutation in embB by modified conventional agar proportion method
[25] = tested on: Mycobacterium tuberculosis; assay: Antibacterial activity against HYG cassette-positive Mycobacterium tuberculosis B5402 harboring embB M306I mutant gene by modified conventional agar proportion method
[26] = tested on: Mycobacterium tuberculosis; assay: Antibacterial activity against Mycobacterium tuberculosis Rv7 harboring embB ATG-GTG (M306V) mutation in embB by modified conventional agar proportion method
[27] = tested on: Mycobacterium tuberculosis; assay: Antibacterial activity against Mycobacterium tuberculosis Rv39 harboring embB GGC-CGC (G324R) mutation in embB by modified conventional agar proportion method
[28] = tested on: Mycobacterium tuberculosis; assay: Antibacterial activity against HYG cassette-negative EMB-resistant Mycobacterium tuberculosis Rv8 harboring embB M306V mutant gene by modified conventional agar proportion method
[29] = tested on: Mycobacterium tuberculosis; assay: Antibacterial activity against HYG cassette-positive Mycobacterium tuberculosis B5202 harboring embB M306V mutant gene by modified conventional agar proportion method
[30] = tested on: Mycobacterium tuberculosis; assay: Antibacterial activity against Mycobacterium tuberculosis B97 harboring embB ATG-ATC (M306I) mutation in embB by modified conventional agar proportion method
[31] = tested on: Mycobacterium tuberculosis; assay: Antibacterial activity against Mycobacterium tuberculosis B51 harboring embB ATG-ACG (M306T) mutation in embB by modified conventional agar proportion method
[32] = tested on: Mycobacterium tuberculosis; assay: Antibacterial activity against Mycobacterium tuberculosis B96 harboring embB GAT-TAT (D328Y) mutation in embB by modified conventional agar proportion method
[33] = tested on: Mycobacterium tuberculosis; assay: Antibacterial activity against Mycobacterium tuberculosis B64 harboring embB ATG-GTG (M306V) mutation in embB by modified conventional agar proportion method
[34] = tested on: Mycobacterium tuberculosis; assay: Antibacterial activity against HYG cassette-positive Mycobacterium tuberculosis RvAS2 harboring embB M306V mutant gene by modified conventional agar proportion method
[35] = tested on: Mycobacterium tuberculosis; assay: Antibacterial activity against HYG cassette-positive Mycobacterium tuberculosis RvAS1 harboring embB M306V mutant gene by modified conventional agar proportion method
[36] = tested on: Mycobacterium tuberculosis; assay: Antibacterial activity against Mycobacterium tuberculosis B85 harboring embB ATG-ATA (M306I) mutation in embB by modified conventional agar proportion method
[37] = tested on: Mycobacterium tuberculosis; assay: Antibacterial activity against Mycobacterium tuberculosis B84 harboring embB ATG-ATC (M306I) mutation in embB by modified conventional agar proportion method
[38] = tested on: Mycobacterium tuberculosis; assay: Antibacterial activity against Mycobacterium tuberculosis B53 harboring embB GAT-TAT (D328Y) mutation in embB by modified conventional agar proportion method
[39] = tested on: Mycobacterium tuberculosis; assay: Antibacterial activity against Mycobacterium tuberculosis B79 harboring embB GGC-CGC (G324R) mutation in embB by modified conventional agar proportion method
[40] = tested on: Mycobacterium tuberculosis; assay: Antibacterial activity against Mycobacterium tuberculosis B70 harboring embB ATG-ATC (M306I) mutation in embB by modified conventional agar proportion method
[41] = tested on: Mycobacterium tuberculosis; assay: Antibacterial activity against HYG cassette-positive Mycobacterium tuberculosis BAS8 harboring embB M306I mutant gene by modified conventional agar proportion method
[42] = tested on: Mycobacterium tuberculosis; assay: Antibacterial activity against HYG cassette-positive Mycobacterium tuberculosis BAS7 harboring embB M306I mutant gene by modified conventional agar proportion method
[43] = tested on: Mycobacterium tuberculosis; assay: Antibacterial activity against Mycobacterium tuberculosis Rv18 harboring embB ATG-GTG (M306V) mutation in embB by modified conventional agar proportion method
[44] = tested on: Mycobacterium tuberculosis; assay: Antibacterial activity against HYG cassette-negative EMB-resistant Mycobacterium tuberculosis Rv44 harboring embB M306I mutant gene by modified conventional agar proportion method

`CC[C@@H](CO)NCCN[C@@H](CC)CO` [ETHAMBUTOL] showed an MIC [1] of 20 µg/mL (≈ 97.9 µM), an MIC [2] of 20 µg/mL (≈ 97.9 µM) and an MIC [3] of 20 µg/mL (≈ 97.9 µM). It also gave an MIC [4] of 20 µg/mL (≈ 97.9 µM), an MIC [5] of 20 µg/mL (≈ 97.9 µM) and an MIC [6] of 20 µg/mL (≈ 97.9 µM). The MIC [7] was 20 µg/mL (≈ 97.9 µM), the MIC [8] was 20 µg/mL (≈ 97.9 µM) and the MIC [9] was 20 µg/mL (≈ 97.9 µM). The MIC [10] was 20 µg/mL (≈ 97.9 µM), the MIC [11] was 20 µg/mL (≈ 97.9 µM) and the MIC [12] was 10 µg/mL (≈ 48.9 µM). The MIC [13] was 20 µg/mL (≈ 97.9 µM), the MIC [14] was 20 µg/mL (≈ 97.9 µM) and the MIC [15] was 20 µg/mL (≈ 97.9 µM). The MIC [16] was 20 µg/mL (≈ 97.9 µM), the MIC [17] was 20 µg/mL (≈ 97.9 µM) and the MIC [18] was 20 µg/mL (≈ 97.9 µM). The MIC [19] was 10 µg/mL (≈ 48.9 µM), the MIC [20] was 10 µg/mL (≈ 48.9 µM) and the MIC [21] was 10 µg/mL (≈ 48.9 µM). It also gave an MIC [22] of 20 µg/mL (≈ 97.9 µM), an MIC [23] of 20 µg/mL (≈ 97.9 µM) and an MIC [24] of 20 µg/mL (≈ 97.9 µM). For the same compound, the MIC [25] was 20 µg/mL (≈ 97.9 µM), the MIC [26] was 20 µg/mL (≈ 97.9 µM) and the MIC [27] was 20 µg/mL (≈ 97.9 µM). For the same compound, the MIC [28] was 20 µg/mL (≈ 97.9 µM), the MIC [29] was 20 µg/mL (≈ 97.9 µM) and the MIC [30] was 20 µg/mL (≈ 97.9 µM). For the same compound, the MIC [31] was 20 µg/mL (≈ 97.9 µM), the MIC [32] was 20 µg/mL (≈ 97.9 µM) and the MIC [33] was 20 µg/mL (≈ 97.9 µM). For the same compound, the MIC [34] was 20 µg/mL (≈ 97.9 µM), the MIC [35] was 20 µg/mL (≈ 97.9 µM) and the MIC [36] was 20 µg/mL (≈ 97.9 µM). It also gave an MIC [37] of 20 µg/mL (≈ 97.9 µM), an MIC [38] of 20 µg/mL (≈ 97.9 µM) and an MIC [39] of 20 µg/mL (≈ 97.9 µM). It also gave an MIC [40] of 40 µg/mL (≈ 196 µM), an MIC [41] of 10 µg/mL (≈ 48.9 µM) and an MIC [42] of 10 µg/mL (≈ 48.9 µM). It also gave an MIC [43] of 20 µg/mL (≈ 97.9 µM) and an MIC [44] of 20 µg/mL (≈ 97.9 µM).
